Results: patent US20250122182A1 (Isosterix, Inc., priority 2023, published 2025)

Biological target: Recombinant KAT6A/MOZ (488-778) protein (Homo sapiens (Human), UniProt Q92794)
Assay: KAT6A AlphaLISA Inhibition Screening Assay
Assay type: biochemical
Details: for inhibition at 1 µM: read-out: Average Kat6A % inhibition @ 1 μM; for inhibition at 10 µM: read-out: Average Kat6A % inhibition @ 10 μM
In short: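 25 nM KAT6A (488-778) pre-incubated 60 or 10 min with compound (10-point, 3-fold from 10 μM), then 400 nM acetyl-CoA and 200 nM biotin-H3(1-21) peptide added for 120 min at RT in pH 8.0 Tris buffer with 330 nM TSA. Acetylation read by AlphaLISA (anti-acetyl-lysine acceptor/streptavidin donor beads); % inhibition vs vehicle.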

Recombinant KAT6A/MOZ (488-778) protein, sequence (Q92794 488-778): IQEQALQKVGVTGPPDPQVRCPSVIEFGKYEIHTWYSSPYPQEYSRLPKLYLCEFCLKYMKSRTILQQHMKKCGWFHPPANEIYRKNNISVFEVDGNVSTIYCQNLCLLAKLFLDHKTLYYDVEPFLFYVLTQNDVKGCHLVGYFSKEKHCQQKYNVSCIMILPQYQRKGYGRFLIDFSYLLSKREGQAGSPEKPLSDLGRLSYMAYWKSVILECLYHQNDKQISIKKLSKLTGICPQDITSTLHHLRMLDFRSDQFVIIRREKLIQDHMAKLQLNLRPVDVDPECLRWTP

inhibition at 1 µM (1 μM test compound) [%]	inhibition at 10 µM (10 μM test compound) [%]	Average Kat6A % inhibition @ 1 μM (1 μM test compound) [%]	Average Kat6A % inhibition @ 10 μM (10 μM test compound) [%]	Compound
100	100	–	–	C=C(F)C(=O)NCc1cnn(Cc2cc(OC)c3c(NS(=O)(=O)c4cc(CC)ccc4OCC(=O)O)noc3c2)c1 [Syn. Ex. 67, 2-(4-ethyl-2-(N-(6-((4-((2-fluoroacrylamido)methyl)-1H-pyrazol-1-yl)methyl)-4-methoxybenzo[d]isoxazol-3-yl)sulfamoyl)phenoxy)acetic acid]
100	100	–	–	COc1cc(C)c(Cl)cc1S(=O)(=O)Nc1noc2cc(Cn3cc(CNS(C)(=O)=O)cn3)cc(OC)c12 [Syn. Ex. 22, 5-chloro-2-methoxy-N-(4-methoxy-6-((4-(methylsulfonamidomethyl)-1H-pyrazol-1-yl)methyl)benzo[d]isoxazol-3-yl)-4-methylbenzenesulfonamide]
101	100	–	–	C#CCOc1ccc(CC)cc1S(=O)(=O)Nc1noc2cc(Cn3cc(CNC(=O)OC)cn3)cc(OC)c12 [Syn. Ex. 128, methyl ((1-((3-((5-ethyl-2-(prop-2-yn-1-yloxy)phenyl)sulfonamido)-4-methoxybenzo[d]isoxazol-6-yl)methyl)-1H-pyrazol-4-yl)methyl)carbamate]
100	101	–	–	CCc1ccc(S(=O)(=O)Nc2noc3cc(Cn4cc(CNC(=O)OC)cn4)cc(OC)c23)c(OC)c1 [Syn. Ex. 125, methyl ((1-((3-((4-ethyl-2-methoxyphenyl)sulfonamido)-4-methoxybenzo[d]isoxazol-6-yl)methyl)-1H-pyrazol-4-yl)methyl)carbamate]
99	100	–	–	CCc1ccc(OC)c(S(=O)(=O)Nc2noc3cc(Cn4cc(CNC(=O)OC)cn4)cc(OC)c23)c1 [Syn. Ex. 17, methyl ((1-((3-((5-ethyl-2-methoxyphenyl)sulfonamido)-4-methoxybenzo[d]isoxazol-6-yl)methyl)-1H-pyrazol-4-yl)methyl)carbamate]
99	100	–	–	C#CC(=O)Nc1ccc(Oc2cc(OC)c3c(NS(=O)(=O)c4cc(CC)ccc4OC)noc3c2)nc1 [Syn. Ex. 108, N-(6-((3-((5-ethyl-2-methoxyphenyl)sulfonamido)-4-methoxybenzo[d]isoxazol-6-yl)oxy)pyridin-3-yl)propiolamide]
97	100	–	–	CCc1ccc(OCC#N)c(S(=O)(=O)Nc2noc3cc(Cn4cc(CNC(=O)OC)cn4)cc(OC)c23)c1 [Syn. Ex. 44, methyl ((1-((3-((2-(cyanomethoxy)-5-ethylphenyl)sulfonamido)-4-methoxybenzo[d]isoxazol-6-yl)methyl)-1H-pyrazol-4-yl)methyl)carbamate]
99	99	–	–	C=C(F)C(=O)NCc1cnn(Cc2cc(OC)c3c(NS(=O)(=O)c4ccccc4OC)noc3c2)c1 [Syn. Ex. 40, 2-fluoro-N-((1-((4-methoxy-3-((2-methoxyphenyl)sulfonamido)benzo[d]isoxazol-6-yl)methyl)-1H-pyrazol-4-yl)methyl)acrylamide]
93	100	–	–	C=C(F)C(=O)NCc1cnn(Cc2cc(OC)c3c(NS(=O)(=O)c4ccc(OC)cc4OC)noc3c2)c1 [Syn. Ex. 60, N-((1-((3-((2,4-dimethoxyphenyl)sulfonamido)-4-methoxybenzo[d]isoxazol-6-yl)methyl)-1H-pyrazol-4-yl)methyl)-2-fluoroacrylamide]
96	97	–	–	COC(=O)NCc1cnn(Cc2cc(OC)c3c(NS(=O)(=O)c4cc(C(F)F)ccc4OC)noc3c2)c1 [Syn. Ex. 135, methyl ((1-((3-((5-(difluoromethyl)-2-methoxyphenyl)sulfonamido)-4-methoxybenzo[d]isoxazol-6-yl)methyl)-1H-pyrazol-4-yl)methyl)carbamate]
61	100	–	–	C#CC(=O)N1CCc2cnn(Cc3cc(OC)c4c(NS(=O)(=O)c5cc(CC)ccc5OC)noc4c3)c2CC1 [Syn. Ex. 9, 5-ethyl-2-methoxy-N-(4-methoxy-6-((6-propioloyl-5,6,7,8-tetrahydropyrazolo[3,4-d]azepin-1(4H)-yl)methyl)benzo[d]isoxazol-3-yl)benzenesulfonamide]
–	–	119	114	COC(=O)NCc1cnn(Cc2cc(OC)c3c(NS(=O)(=O)c4cc5c(cc4OC)CCCC5)noc3c2)c1 [Syn. Ex. 139, methyl ((1-((4-methoxy-3-((3-methoxy-5,6,7,8-tetrahydronaphthalene)-2-sulfonamido)benzo[d]isoxazol-6-yl)methyl)-1H-pyrazol-4-yl)methyl)carbamate]
99	100	–	–	CCc1ccc(OC)c(S(=O)(=O)Nc2noc3cc(Cn4cc(CNC(=O)NC)cn4)cc(OC)c23)c1 [Syn. Ex. 91, 5-ethyl-2-methoxy-N-(4-methoxy-6-((4-((3-methylureido)methyl)-1H-pyrazol-1-yl)methyl)benzo[d]isoxazol-3-yl)benzenesulfonamide]
100	100	–	–	C=C(F)C(=O)NCc1cnn(Cc2cc(OC)c3c(NS(=O)(=O)c4cc(CC)ccc4OCCN4CCOC4=O)noc3c2)c1 [Syn. Ex. 78, N-((1-((3-((5-ethyl-2-(2-(2-oxooxazolidin-3-yl)ethoxy)phenyl)sulfonamido)-4-methoxybenzo[d]isoxazol-6-yl)methyl)-1H-pyrazol-4-yl)methyl)-2-fluoroacrylamide]
93	100	–	–	CCc1ccc(OCC(=O)N2CCOCC2)c(S(=O)(=O)Nc2noc3cc(Cn4cc(CNC(=O)OC)cn4)cc(OC)c23)c1 [Syn. Ex. 66, methyl ((1-((3-((5-ethyl-2-(2-morpholino-2-oxoethoxy)phenyl)sulfonamido)-4-methoxybenzo[d]isoxazol-6-yl)methyl)-1H-pyrazol-4-yl)methyl)carbamate]
100	100	–	–	C#CC(=O)N1Cc2cnn(Cc3cc(OC)c4c(NS(=O)(=O)c5cc(OC)ccc5OC)noc4c3)c2C1 [Syn. Ex. 4, 2,5-dimethoxy-N-(4-methoxy-6-((5-propioloyl-5,6-dihydropyrrolo[3,4-c]pyrazol-1(4H)-yl)methyl)benzo[d]isoxazol-3-yl)benzenesulfonamide]
59	92	–	–	CCc1ccc(OCCN)c(S(=O)(=O)Nc2noc3cc(Cn4cc(CNC(=O)OC)cn4)cc(OC)c23)c1 [Syn. Ex. 75, methyl ((1-((3-((2-(2-aminoethoxy)-5-ethylphenyl)sulfonamido)-4-methoxybenzo[d]isoxazol-6-yl)methyl)-1H-pyrazol-4-yl)methyl)carbamate]
